Where a SMILES comes first, the peptide text is derived from it. [ ]: non-standard residue; d: D form. The star is where a group is joined. AMC = Cc1cc(=O)oc2cc(N*)ccc12; Nle = CCCC[CH](N)C(=O)O; Cbz = O=C(OCc1ccccc1)*; NHOH = ON*

We go through 50 compounds from patent publication US20050042213A1, “Methods and pharmaceutical compositions for modulating heparanase activation and uses thereof” (InSight Biopharmaceuticals Ltd., priority 2003, published 2005).

One assay concerns 293 cell extract. Kind of assay: Cleavage of Z-Pro-Lys-Lys-Glu-AMC (Peptide 1) by 293 cell extract and its inhibition by protease inhibitors. It is filed as biochemical, human. On the set-up: % Inhibition: concentration or dose not given beside the values. The conditions noted are these: different pHs, pH range 4.5-7.5. On the procedure: Following a 20 minutes incubation at 37° C., fluorescence released due to proteolytic activity was determined using a BMG POLARstar™ Galaxy fluorometer: excitation at 390 nm and emission at 460 nm.
As for “Z-Glu-His-Tyr-Gln-AMC (Cbz-EHYQ-{AMC}; SMILES Cc1cc(=O)oc2cc(NC(=O)[C@H](CCC(N)=O)NC(=O)[C@H](Cc3ccc(O)cc3)NC(=O)[C@H](Cc3c[nH]cn3)NC(=O)[C@H](CCC(=O)O)NC(=O)OCc3ccccc3)ccc12) [Peptide 2]”, the “cleavage by 293 cell extract” value is “not cleaved”.

The assay is the same for the next values; noted with them: inhibition of Z-Pro-Lys-Lys-Glu-AMC cleavage by 293 cell extract.
In the case of `CSCC[C@@H](C=O)NC(=O)[C@H](CC(C)C)NC(=O)[C@H](CC(C)C)NC(C)=O` [Calpain inhibitor II, N-Acetyl-Leu-Leu-Met-CHO] (Ac-Leu-Leu-Met-aldehyde), the “% Inhibition” value is 98%.

Regarding `O=C[C@H](Cc1ccc(O)cc1)NC(=O)[C@H](Cc1ccccc1)NC(=O)OCc1ccccc1` [Cathepsin L inhibitor II] (Cbz-Phe-Tyr-aldehyde), the “% Inhibition” value is listed as 97%.

For the compound `CC(C)C[C@H](NC(=O)[C@H]1O[C@@H]1C(=O)O)C(=O)NCCCCN=C(N)N` [Compound E-64], the “% Inhibition” value was 93%.

`CC(=O)N[C@@H](CC(C)C)C(=O)N[C@@H](CC(C)C)C(=O)N[C@H](C=O)CCCNC(=N)N` [Leupeptin]: the “% Inhibition” value is on record as 97%.

Turning to `O=C(O)[C@@H](Cc1ccccc1)NS(=O)(=O)c1ccc(-c2ccccc2)cc1` [MMP 2,9 inhibitor], the “% Inhibition” value is listed as 0%.

Regarding `CC(C)CC(NC(=O)C1CCCN1C(=O)OCc1ccccc1)C(=O)NCC(=O)NO` (stereo not drawn) [Z-Pro-Leu-Gly hydroxamate] (Cbz-Pro-Leu-Gly-{NHOH}; configuration not given here), the “% Inhibition” value is given as 0%.

As for `N=C(N)c1ccccc1` [benzamidine], the “% Inhibition” value was 13%.

Another assay addresses T1, pro-heparanase (H60) (Homo sapiens, UniProt Q9Y251, K307R).
T1 sequence (Q9Y251 36-543 K307R): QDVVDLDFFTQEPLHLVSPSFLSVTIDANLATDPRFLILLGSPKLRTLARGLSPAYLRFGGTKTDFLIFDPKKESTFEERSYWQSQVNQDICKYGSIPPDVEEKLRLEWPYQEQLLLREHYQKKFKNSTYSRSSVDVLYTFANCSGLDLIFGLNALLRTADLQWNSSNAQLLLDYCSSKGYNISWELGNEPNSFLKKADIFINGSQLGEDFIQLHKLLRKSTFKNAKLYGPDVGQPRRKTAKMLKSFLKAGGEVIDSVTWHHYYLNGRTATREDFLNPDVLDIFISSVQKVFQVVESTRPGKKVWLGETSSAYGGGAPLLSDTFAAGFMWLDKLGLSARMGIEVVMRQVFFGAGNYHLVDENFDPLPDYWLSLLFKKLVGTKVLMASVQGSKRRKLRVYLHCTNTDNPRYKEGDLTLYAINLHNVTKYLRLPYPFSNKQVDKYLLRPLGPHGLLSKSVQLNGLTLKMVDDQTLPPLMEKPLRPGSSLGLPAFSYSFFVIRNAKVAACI
Kind of assay: Pro-heparanase activation in a cell-based assay (293 cells, DMB assay). The conditions noted are these: inhibition of pro-heparanase activation; Table 7, 5-(5-Phenyl-furan-2-ylmethylene)rhodanine analogs.
For `O=C(O)CCCCCN1C(=O)C(=Cc2ccc(-c3ccc(Cl)cc3)o2)SC1=S` [Compound 2], inhibition was half-maximal at 0.52 µM (IC50).

Regarding `O=C(O)CCCN1C(=O)C(=Cc2ccc(-c3ccccc3[N+](=O)[O-])o2)SC1=S` [Compound 3], half-maximal inhibition (IC50) was put at 14.3 µM.

`O=C(O)CCN1C(=O)C(=Cc2ccc(-c3ccccc3)o2)SC1=S` [Compound 7] showed an IC50 of 2.3 µM.

In turn, `O=C(O)CCN1C(=O)C(=Cc2ccc(-c3ccccc3Cl)o2)SC1=S` [Compound 8] returned an IC50 of 6 µM.

For `O=C(O)CCN1C(=O)C(=Cc2ccc(-c3ccc(Cl)cc3Cl)o2)SC1=S` [Compound 9], the IC50 turned out to be 3 µM.

`O=C(O)CCN1C(=O)C(=Cc2ccc(-c3ccccc3[N+](=O)[O-])o2)SC1=S` [Compound 10] had an IC50 of 30 µM.

`O=C(O)CCN1C(=O)C(=Cc2ccc(-c3ccc([N+](=O)[O-])cc3)o2)SC1=S` [Compound 11] gave an IC50 of 2.8 µM.

Compound `O=C(O)CN1C(=O)C(=Cc2ccc(-c3ccccc3Cl)o2)SC1=S` [Compound 14] had an IC50 of 32 µM.

Consider `O=C(O)CN1C(=O)C(=Cc2ccc(-c3cccc(Cl)c3)o2)SC1=S` [Compound 15], for which the IC50 came out at 2 µM.

In the case of `O=C(O)CN1C(=O)C(=Cc2ccc(-c3ccc(Cl)cc3)o2)SC1=S` [Compound 16], the IC50 was determined as 3.8 µM.

Compound `O=C(O)CN1C(=O)C(=Cc2ccc(-c3cc(Cl)ccc3Cl)o2)SC1=S` [Compound 17] yielded an IC50 of 20 µM.

In turn, `O=C(O)CN1C(=O)C(=Cc2ccc(-c3ccc(Cl)cc3Cl)o2)SC1=S` [Compound 18] registered an IC50 of 18 µM.

In the case of `O=C(O)CN1C(=O)C(=Cc2ccc(-c3ccc([N+](=O)[O-])cc3Cl)o2)SC1=S` [Compound 20], it took 29 µM to reach half-maximal inhibition (IC50).

Take `O=C(O)CN1C(=O)C(=Cc2ccc(-c3ccc(I)cc3)o2)SC1=S` [Compound 22]: the IC50 was found to be 27 µM.

`O=C(O)CN1C(=O)C(=Cc2ccc(-c3ccccc3[N+](=O)[O-])o2)SC1=S` [Compound 24] showed an IC50 of 37 µM.

Turning to `Cc1cc([N+](=O)[O-])ccc1-c1ccc(C=C2SC(=S)N(CC(=O)O)C2=O)o1` [Compound 25], the IC50 was 21 µM.

In the case of `O=C(O)CN1C(=O)C(=Cc2ccc(-c3cccc(C(F)(F)F)c3)o2)SC1=S` [Compound 26], the midpoint of inhibition, the IC50, lay at 7 µM.

Turning to `O=C(O)CN1C(=O)C(=Cc2ccc(-c3cccc(C(=O)O)c3)o2)SC1=S` [Compound 27], the IC50 was determined as 46 µM.

`O=C1C(=Cc2ccc(-c3cccc([N+](=O)[O-])c3)o2)SC(=S)N1CCS(=O)(=O)O` [Compound 35]: the IC50 is 41 µM.

`O=C1NC(=S)SC1=Cc1ccc(-c2ccc(Br)cc2)o1` [Compound 36] gave an IC50 of 13 µM.

In turn, `Cc1ccc(-c2ccc(C=C3SC(S)=NC3=O)o2)cc1Cl` [Compound 37] registered an IC50 of 18 µM.

As for `O=C1C(=Cc2ccc(-c3ccc([N+](=O)[O-])cc3Cl)o2)SC(=S)N1c1ccccc1` [Compound 46], the midpoint of inhibition, the IC50, lay at 250 µM.

The compound `O=C(O)c1cccc(-c2ccc(C=C3SC(=S)N(c4ccccc4)C3=O)o2)c1` [Compound 47] came in with an IC50 of 5 µM.

With `O=C(O)c1ccc(-c2ccc(C=C3SC(=S)N(c4ccccc4)C3=O)o2)cc1` [Compound 48], it took 0.95 µM to reach half-maximal inhibition (IC50).

The compound `O=C(O)c1ccc(-c2ccc(C=C3SC(=S)N(c4cccc([N+](=O)[O-])c4)C3=O)o2)cc1` [Compound 56] gave an IC50 of 13 µM.

For the compound `O=C1C(=Cc2ccc(-c3cccc(Cl)c3Cl)o2)SC(=S)N1c1ccccc1` [Compound 1013-0169], the IC50 turned out to be 129 µM.

Staying with this assay, now noted: inhibition of pro-heparanase activation; Table 8, 5-(Heteroaryl-2-ylmethylene)rhodanine analogs.
Regarding `Cc1c(N2C(=O)C(=Cc3ccco3)SC2=S)c(=O)n(-c2ccccc2)n1C` [Compound 76], the IC50 turned out to be 52 µM.

Still in this assay, the particulars now being: inhibition of pro-heparanase activation; Table 11, heparin-binding compounds.
The compound `C=CCn1c(=O)/c(=C\C=C2/Nc3c(sc(C)c3C)N2CC)s/c1=C\c1sc(-c2ccccc2)c(-c2ccccc2)[n+]1CC` [Compound 113] registered an IC50 of 2.61 µM.

Take `C=CCn1c(=O)/c(=C\C=C2\C=CN(CC)c3ccccc32)s/c1=C\c1sc(-c2ccccc2)c(-c2ccccc2)[n+]1CC` [Compound 114]: the IC50 was found to be 7 µM.

In the case of `CCN1C=C/C(=C/C=c2/s/c(=C\c3sc(-c4ccccc4)c(-c4ccccc4)[n+]3CC)n(CC)c2=O)c2ccccc21` [Compound 115], the IC50 was determined as 12 µM.

In turn, `CN(C)c1ccc(/C=C/C2=[N+](C)c3ccccc3C2(C)C)cc1` [Compound 116] displayed an IC50 of 3 µM.

Turning to `CN(C)c1ccc(/C=C/c2sc3ccc4ccccc4c3[n+]2C)cc1` [Compound 117], the IC50 is 9 µM.

On to `CC[n+]1c(/C=C/Nc2ccccc2)sc2c3ccccc3sc21` [Compound 118], for which the IC50 came to 6 µM.

In turn, `CCN1/C(=C/C=C/c2sc3ccc(OC)cc3[n+]2CC)Sc2ccc3ccccc3c21` [Compound 119] yielded an IC50 of 1.74 µM.

On to `CCC(/C=C1\Sc2ccc3ccccc3c2N1CC)=C\c1sc2ccc(-c3ccccc3)cc2[n+]1CC` [Compound 120], for which the IC50 is 3.5 µM.

Compound `CC[n+]1ccc(/C=C/C=C2\Sc3ccc4ccccc4c3N2C)c2ccccc21` [Compound 121] gave an IC50 of 5.27 µM.

For `CN1\C(=C/C=C/C=C/C=C/C2=[N+](C)c3ccccc3C2(C)C)C(C)(C)c2ccccc21` [Compound 122], the IC50 is 16 µM.

The assay is the same for the next values; noted with them: inhibition of pro-heparanase activation; Table 12, known inhibitors of cathepsin B activity.
On to `CCCCC(C=O)NC(=O)C(CC(C)C)NC(=O)C(CC(C)C)NC(C)=O` (stereo not drawn) [Compound 123, reference compound] (Ac-Leu-Leu-[Nle]-aldehyde; configuration not given here), for which half-maximal inhibition (IC50) required 7.4 µM.

Consider `CSCCC(C=O)NC(=O)C(CC(C)C)NC(=O)C(CC(C)C)NC(C)=O` (stereo not drawn) [Compound 124, reference compound] (Ac-Leu-Leu-Met-aldehyde; configuration not given here), for which the IC50 amounted to 10 µM.

In turn, `CCCNC(=O)C1OC1C(=O)NC(C(=O)N1CCCC1C(=O)OC)C(C)CC` (stereo not drawn) [Compound 125, reference compound] gave an IC50 of 23 µM.

In the case of `CC(=O)NC(CC(C)C)C(=O)NC(CC(C)C)C(=O)NC(C=O)CCCNC(=N)N` (stereo not drawn) [Compound 126, reference compound], the IC50 came out at 26 µM.

`CC(C)CC(NC(=O)C1OC1C(=O)O)C(=O)NCCCCNC(=N)N` (stereo not drawn) [Compound 127, reference compound]: the IC50 amounted to 32 µM.

System in the next assay: not listed separately
Kind of assay: Heparin binding of compounds (heparin sepharose CL-6B beads). The conditions noted are these: compound at 5 uM. As for the experimental part: Heparin binding—5 μM of the selected compound was prepared in a solution of PBS pH 7.2 with 0.05% Tween and 5% DMSO. […] Excess water was discarded by filtration using a Multiscreen vacuum manifold (Millipore, Cat No. MAVM 096 00). 200 μl of each compound tested was transferred to three wells of the filter plate—one empty well, one with sepharose CL-6B and one with heparin sepharose CL-6B. Plates were rotated for 2 hrs at 37° C. followed by filtration to a new 96 well clear plate, using a Multiscreen vacuum manifold. The absorbance spectrum of the filtrate in each well was determined using a VERSAmax plate reader (Molecular devices). Percent of heparin binding was calculated from the binding to heparin sepharose CL-6B as compared to the binding of the compound to the control sepharose CL-6B beads.
`C=CCn1c(=O)/c(=C\C=C2/Nc3c(sc(C)c3C)N2CC)s/c1=C\c1sc(-c2ccccc2)c(-c2ccccc2)[n+]1CC` [Compound 113]: the “Binding to heparin (5 uM)” value came to 73%.

Regarding `C=CCn1c(=O)/c(=C\C=C2\C=CN(CC)c3ccccc32)s/c1=C\c1sc(-c2ccccc2)c(-c2ccccc2)[n+]1CC` [Compound 114], the “Binding to heparin (5 uM)” value is 48%.

For the compound `CCN1C=C/C(=C/C=c2/s/c(=C\c3sc(-c4ccccc4)c(-c4ccccc4)[n+]3CC)n(CC)c2=O)c2ccccc21` [Compound 115], the “Binding to heparin (5 uM)” value was determined as 66%.

For the compound `CN(C)c1ccc(/C=C/C2=[N+](C)c3ccccc3C2(C)C)cc1` [Compound 116], the “Binding to heparin (5 uM)” value is given as 71%.

For `CN(C)c1ccc(/C=C/c2sc3ccc4ccccc4c3[n+]2C)cc1` [Compound 117], the “Binding to heparin (5 uM)” value was found to be 66%.

For `CC[n+]1c(/C=C/Nc2ccccc2)sc2c3ccccc3sc21` [Compound 118], the “Binding to heparin (5 uM)” value was 61%.

As for `CCN1/C(=C/C=C/c2sc3ccc(OC)cc3[n+]2CC)Sc2ccc3ccccc3c21` [Compound 119], the “Binding to heparin (5 uM)” value is on record as 51%.

In the case of `CCC(/C=C1\Sc2ccc3ccccc3c2N1CC)=C\c1sc2ccc(-c3ccccc3)cc2[n+]1CC` [Compound 120], the “Binding to heparin (5 uM)” value is on record as 61%.

In the case of `CC[n+]1ccc(/C=C/C=C2\Sc3ccc4ccccc4c3N2C)c2ccccc21` [Compound 121], the “Binding to heparin (5 uM)” value worked out at 47%.

For the compound `CN1\C(=C/C=C/C=C/C=C/C2=[N+](C)c3ccccc3C2(C)C)C(C)(C)c2ccccc21` [Compound 122], the “Binding to heparin (5 uM)” value came out at 65%.

As usually defined, the % Inhibition is the share of the control response that was lost under treatment. A word on the IC50: it is the concentration at which inhibition is half-maximal.
